Test results from patent US6833387B1, “Chemical compounds” (AstraZeneca AB, priority 1999, dated 2004).
Read-outs that look alike come from different tables or passages of the source.

Tests used:
MCP-1 receptor B (CCR2B) = target: T1, MCP-1 receptor B (CCR2B) (Homo sapiens, UniProt P41597); test: hMCP-1 receptor binding assay (125I-MCP-1, CHO-CCR2B cell membranes)
T1 construct: expressed in transfected cells; membrane fragments
T1 sequence (P41597 1-360 isoform P41597-2): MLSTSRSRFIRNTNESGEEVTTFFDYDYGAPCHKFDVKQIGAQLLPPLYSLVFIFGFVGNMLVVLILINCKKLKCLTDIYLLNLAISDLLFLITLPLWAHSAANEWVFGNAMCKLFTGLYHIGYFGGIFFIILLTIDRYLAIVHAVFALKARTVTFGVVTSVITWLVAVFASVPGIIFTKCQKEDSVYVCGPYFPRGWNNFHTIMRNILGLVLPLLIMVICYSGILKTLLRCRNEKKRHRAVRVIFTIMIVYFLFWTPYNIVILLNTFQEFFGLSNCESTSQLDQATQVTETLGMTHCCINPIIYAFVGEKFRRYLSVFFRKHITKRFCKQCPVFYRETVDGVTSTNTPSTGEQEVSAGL
Source text: The MCP-1 receptor B (CCR2B) cDNA was cloned by PCR from THP-1 cell RNA using suitable oligonucleotide primers based on the published MCP-1 receptor sequences (Charo et al., 1994, Proc. Natl. Acad Sci. USA. 91, 2752). The resulting PCR products were cloned into vector PCR-II™ (In Vitrogen, San Diego, Calif.). Error free CCR2B cDNA was subcloned as a Hind III-Not I fragment into the eukaryotic expression vector pCDNA3 (In Vitrogen) to generate pCDNA3/CC-CKR2A and pCDNA3/CCR2B respectively.
Linearised pCDNA3/CCR2B DNA was transfected into CHO-K1 cells by calcium phosphate precipitation (Wigler et al., 1979, Cell, 16, 777). Transfected cells were selected by the addition of Geneticin Sulphate (G418, Gibco BRL) at 1 mg/ml, 24 hours after the cells had been transfected. Preparation of RNA and Northern blotting were carried out as described previously (Needham et al., 1995, Prot. Express. Purific., 6, 134). CHO-K1 clone 7 (CHO-CCR2B) was identified as the highest MCP-1 receptor B expressor.
CHO-CCR2B cells were grown in DMEM supplemented with 10% foetal calf serum. 2 mM glutamine. […]
^125I MCP-1 was prepared using Bolton and Hunter conjugation (Bolton et al. 1973. Biochem. J., 133, 529, Amersham International plc]. Equilibrium binding assays were carried out using the method of Ernst et al., 1994, J. Immunol., 152, 3541. Briefly, varying amounts of ^125I-labeled MCP-1 were added to 7 μg of purified CHO-CCR2B cell membranes in 100 μl of Binding Buffer. After 1 hour incubation at room temperature the binding reaction mixtures were filtered and washed 5 times through a plate washer (Brandel MLR-96T Cell Harvester) using ice cold Binding Buffer. Filter mats (Brandel GF/B) were pre-soaked for 60 minutes in 0.3% polyethylenimine prior to use. Following filtration individual filters were separated into 3.5 ml tubes (Sarstedt No. 55,484) and bound ^125I-labeled MCP-1 was determined (LKB 1277 Gammamaster). […] Non-specific binding was determined by the inclusion of a 200-fold molar excess of unlabelled MCP-1 in the reaction. […]

THP-1 cells [1] = test: hMCP-1 mediated chemotaxis; type: cell-based, human; conditions: THP-1 cell migration
Description: In vitro chemotaxis assays were performed using the human monocytic cell line THP-1. Cell migration through polycarbonate membranes was measured by enumerating those passing through either directly by Coulter counting or indirectly by use of a colourimetric viability assay measuring the cleavage of a tetrazolium salt by the mitochondrial respirator chain (Scudiero D. A., et al. 1988, Cancer Res., 48, 4827-4833).
Chemoattractants were introduced into a 96-well microtitre plate which forms the lower well of a chemotaxis chamber fitted with a PVP-free 5 μm poresize polycarbonate adhesive framed filter membrane (NeuroProbe MB series, Cabin John, Md. 20818, USA) according to the manufacturer's instructions. The chemoattractant was diluted as appropriate in synthetic cell culture medium. […] The plate was incubated at 37° C. for 3 h and the absorbance of the soluble formazan product was read on a microtitre plate reader at 450 nm. The data was input into a spreadsheet, corrected for any random migration in the absence of chemoattractant and the average absorbance values, standard error of the mean, and significance tests were calculated, hMCP-1 induced concentration dependent cell migration with a characteristic biphasic response, maximal 0.5-1.0 nm. […]

THP-1 cells [2] = test: MCP-1 mediated calcium flux in THP-1 cells; type: cell-based, human; conditions: stimulation of THP-1 cells, approximate; read-out: EC50 for rise in [Ca2+]i
Description: The human monocytic cell line THP-1 was grown in a synthetic cell culture medium RPMI 1640 supplemented with 10% foetal calf serum. 6 mM glutamine and Penicillin-Streptomycin (at 50 μg streptomycin/mil, Gibco BRL). THP-1 cells were washed in HBSS (lacking Ca^2+ and Mg^2+)+1 mg/ml BSA and resuspended in the same buffer at a density of 3×10^6 cells/ml. The cells were then loaded with […] FURA-2/AM for 30 min at 37° C., washed twice in HBSS, and resuspended at 1×10^6 cells/ml. THP-1 cell suspension (0.9 ml) was added to a 5 ml disposable cuvette containing a magnetic stirrer bar and 2.1 ml of prewarmed (37° C.) HBSS containing 1 mg/ml BSA. 1 mM MgCl2 and 2 mM CaCl2. The cuvette was placed in a fluorescence spectrophotometer (Perkin Elmer, Norwalk, Conn.) and preincubated for 4 min at 37° C. with stirring. Fluorescence was recorded over 70 sec and cells were stimulated by addition of hMCP-1 to the cuvette after 10 sec. [Ca^2+]i was measured by excitation at 340 nm and 380 nm alternately and subsequent measurement of the intensity of the fluorescence emission at 510 nm.
where the Kd for FURA-2 Ca^2+ complex at 37° C. was taken to be 224 nm. […]

| EC50 (THP-1 cells [2]) [nM] | IC50 (MCP-1 receptor B (CCR2B); membrane fragments from CHO-CCR2B cells, cold competition, read-out: IC50 of MCP-1 binding to CCR2B) [µM] | Kd (MCP-1 receptor B (CCR2B); membrane fragments from CHO-CCR2B cells, equilibrium binding) [nM] | Compound | IC50 (MCP-1 receptor B (CCR2B); competition with 100 pM labelled MCP-1, CHO-CCR2B membranes, read-out: IC50 in the hMCP-1 receptor binding assay) [µM] | concentration of maximal cell migration (biphasic response) (THP-1 cells [1]) |
| --- | --- | --- | --- | --- | --- |
| – | – | – | O=C(NC1CCS(=O)(=O)C1)c1c(C(=O)O)n(Cc2ccc(Cl)c(Cl)c2)c2ccccc12 (centres unmarked) [Compound 81] | 6.86 | – |
| ~2 | 0.00011 | 0.12 | MCP-1: Human Monocyte Chemoattractant Protein-1, a C—C chemokine; ligand of the MCP-1 (CCR2) receptor | – | 0.5-1.0 nm |
